Laboratory results taken from patent US20240294881A1, “CELL CULTURE SUPPLEMENT FOR PRODUCING STEM CELLS, AND METHOD FOR PRODUCING STEM CELLS” (OPTICELL, INC, priority 2021, published 2024).

Assays:
[1] = test system: healthy human neonatal fibroblasts; experiment: Anti-NANOG immunostaining of cells dissociated from neonatal fibroblast spheroids; type: cell-based; conditions: spheroids day 20 dissociated with Accutase, 24 h further culture; nuclei of some cells, majority NANOG-negative
Experimental: To detect stem cells induced in fibroblast spheroids, immunostaining with a fluorescent dye-labeled antibody was used, and stem cells in the spheroid-forming cells were detected. An aqueous solution of the polypeptide represented by formula (1) (0.125%) (cell culture supplement) was added to a commercial polystyrene-made 96-well round-bottom culture vessel (Nunclon Delta 96U Bottom, Thermo Fisher Scientific) at 100 μL/well to complete coating treatment with the cell culture supplement in the same manner as in Example 2. Fibroblasts were maintained and cultured in a serum-free medium (Fujifilm Wako Pure Chemical Corporation, DMEM/F12 medium, human serum albumin recombinant 0.5 mg/mL, human transferrin recombinant 10 μg/mL, basic-FGF 5 ng/ml, and insulin 2.5 μg/mL). Fibroblasts floating in the medium were seeded in the culture vessel coated with the cell culture supplement at 2×10^4 cells/well/100 μL and cultured at 37° C. under 5% CO2 conditions. On day 20 after the start of culture, spheroids were aseptically collected from the 96-well round-bottom culture vessel. […] For the fluorescence-labeled antibody, NL493 fluorescent dye-labeled anti-NANOG antibody (fluorescent green, R&D systems) was used, and observation was performed with a fluorescence microscope.

[2] = test system: healthy human adult mammary gland epithelial cells; experiment: Spheroid culture of healthy human adult mammary gland epithelial cells, microscope observation; type: cell-based; conditions: culture vessel coated with 0.125% solution; day 2 to day 20; uncoated control grew 2D
Experimental: An aqueous solution of the polypeptide represented by formula (1) (0.125%) (cell culture supplement) was added to a commercial polystyrene-made 6-well flat-bottom culture vessel (CellBIND, Corning) and to a polystyrene-made 96-well round-bottom culture vessel (Nunclon Delta 96U Bottom, Thermo Fisher Scientific) and allowed to stand at 4° C. for 24 hours.
The cell culture supplement solution was then removed and the coated cell culture supplement was dried in a dryer at 37° C. for 96 hours to complete the cell culture supplement coating process. Healthy human adult mammary gland epithelial cells (ATCC PCS-600-010, primary mammary epithelial cells, referred to as “mammary gland epithelial cells” below) were maintained and cultured in a serum-free medium (Promo Cell; mammary epithelial cell growth medium, EGF 5 ng/ml, and insulin 2.5 μg/mL). In the culture vessels coated with the cell culture supplement, the mammary gland epithelial cells floating in 2 mL of the medium were seeded at 2×10^6 cells/well (6-well flat-bottom culture vessel) and the mammary gland epithelial cells floating in 100 μL of the medium were seeded at 2×10^4 cells/well (96-well round-bottom culture vessel). The cells of each culture vessel were cultured at 37° C. under 5% CO2 conditions. […]

HOS-143B cells = experiment: Inhibition of induction of apoptosis, Caspase-3/7 activity assay in spheroids; type: cell-based, human; conditions: U- and V-bottom 96-well plates coated with 0.5% solution diluted 4-fold and 8-fold; day 3 and day 6; concentration-dependent, more pronounced on day 6
Experimental: An aqueous solution of the polypeptide represented by formula (1) was added in two different concentrations (prepared by diluting a 0.5% solution 4-fold and 8-fold) at 100 μL/well and 200 μL/well respectively to two 96-well cell culture plates with different bottom shapes (plate #163320 with a U-shaped bottom; Corning, NY, USA, and plate #277143 with a V-shaped bottom; Thermo Fisher Scientific, MA, USA) and allowed to stand overnight at 4° C. Thereafter, the excess cell culture supplement was removed, and the remaining solution was dried in a clean bench for about 6 hours to complete the treatment with the cell culture supplement. […] After three days and six days, the apoptosis activity per well was measured by using a Caspase activity assay kit (Apo-ONE Homogeneous Caspase-3/7 Assay kit; Promega, WI, USA). […] Thereafter, 100 μL of the culture fluid was transferred to a black 96-well cell culture plate (#237105; Thermo Fisher Scientific, MA, USA), and the value of fluorescence at 590 nm (excitation light at 560 nm) was measured with a plate reader. The value determined by subtracting the value for reagent-only with no cells (blank value) from a measured value was considered to be the measured value for each day of culture, and the values compared to those of the plate not coated with the aqueous solution of the polypeptide represented by formula (1) (control) were plotted.

## (Pro-Hyp-Gly)n [cell culture supplement]
[1]
  nuclear NANOG protein in cells dispersed from spheroids: strong NANOG antibody-positive green fluorescence
[2]
  spheroid formation: self-assembled to form spheroids
HOS-143B cells
  apoptosis (Caspase-3/7 activity) compared with uncoated plate: inhibited
